Experimental data reported in patent EP1388586A2, “Identification of broadly reactive DR restricted epitopes” (priority 1998, dated 1999).
Where two headings read alike, the source gives them in different places. Ends that are not written are not given here.

How the values were obtained:
[1] = target: T1, DRB1*0101 (DR1) (Homo sapiens, UniProt P01903+P01911, A100R/D57E/F55L/F60I/F76Y/I96L/L162R/M171V/P40L/Q125E/R42F/V115G/Y59C); experiment: Class II peptide-binding assay, DR1;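 note: competition assay: unlabeled test peptides inhibit binding of a radiolabeled probe peptide to purified DR, with half-maximal inhibition taken as an approximate dissociation constant Kd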
T1 construct: used as sources of human HLA class II molecules; endogenous in cells; host or cells: LG2 (EBV-transformed homozygous B cell line)

[2] = target: T2, DRB1*1501 (DR2w2b) (Homo sapiens, UniProt P01903+P01911); experiment: Class II peptide-binding assay, DR2w2b (DR2w2B1); settings: Table V A) Non Predictions; read-out: Binding Capacity DR2w2b
T2 construct: expressed in transfected cells; host or cells: L466.1 transfected fibroblasts
Method: (§1) Class II peptide-binding assays. […] These assays were chosen as to be representative of the most common DR alleles.
(§2) In appropriate stoichiometric conditions, the IC50 of an unlabeled test peptide to the purified DR is a reasonable approximation of the affinity of interaction (Kd). Peptides were tested in two to four completely independent experiments. […] Final detergent concentration in the incubation mixture was 0.05% Nonidet P-40. Assays were performed at pH 7.0 with the exception of DR3, which was performed at pH 4.5, and DRw53, which was performed at pH 5.0.
(§3) All subsequent inhibition and direct binding assays were the performed using these class II concentrations.

[3] = target: T3, DRB5*0101 (DR2w2a) (Homo sapiens, UniProt P01903+Q30154); experiment: Class II peptide-binding assay, DR2w2a (DR2w2B2);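 note: competitive binding assay: unlabeled peptide inhibiting binding of a radiolabeled probe peptide to purified DR molecules at pH 7.0, IC50 approximating Kd, lower means stronger binding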
T3 construct: used as sources of human HLA class II molecules; endogenous in cells; host or cells: GM3107 (EBV-transformed homozygous B cell line)
Method: as §1
(§4) Radiolabeled peptides were iodinated using the chloramine-T method. […] In appropriate stoichiometric conditions, the IC50 of an unlabeled test peptide to the purified DR is a reasonable approximation of the affinity of interaction (Kd). Peptides were tested in two to four completely independent experiments. […] Final detergent concentration in the incubation mixture was 0.05% Nonidet P-40. Assays were performed at pH 7.0 with the exception of DR3, which was performed at pH 4.5, and DRw53, which was performed at pH 5.0.
as §3

[4] = target: T4, DRB1*0401 (DR4w4) (Homo sapiens, UniProt P01903+P01911, A100K/A169T/F76Y/I96L/K127E/L162R/M171V/N62H/P40V/Q125Y/R42H/S133A/S149N/S66Y/V115G/V209L/W38E); experiment: Class II peptide-binding assay, DR4w4;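 note: unlabeled test peptides compete with a radiolabeled probe peptide for binding to affinity-purified HLA-DR, with DR amount titrated to capture a small fraction of label, IC50 approximating Kd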
T4 construct: used as sources of human HLA class II molecules; endogenous in cells; host or cells: PREISS (EBV-transformed homozygous B cell line)

[5] = target: DRB1*0405 (DR4w15) (Homo sapiens, UniProt P01903+P01911, A100R/A169T/D86S/F76Y/I96L/K127E/L162R/M171V/N62H/P40V/Q125Y/R42H/S133A/S149N/S66Y/V115G/V209L/W38E); experiment: Class II peptide-binding assay, DR4w15
Method: as §1, §4, §3
DR4w15. The β4 product DRw53 is co-expressed with DR4w15 and the determination of the specificity of the DR4w1 binding assay is complicated in that the same radiolabeled ligand is used for both the DR4w15 and DRw53 binding assays.

[6] = target: T5, DRB1*1101 (DR5w11) (Homo sapiens, UniProt P01903+P01911, A100R/A169T/A87E/I96F/K41T/L162R/M171V/P40S/Q125H/Q178H/Q39Y/Q99D/R42S/S66Y/T262R/V115G/W38E); experiment: Class II peptide-binding assay, DR5w11;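 note: competition by unlabeled test peptide against iodinated probe peptide binding to affinity-purified HLA-DR, class II amount titrated beforehand, half-maximal inhibitory concentration read as approximate Kd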
T5 construct: used as sources of human HLA class II molecules; endogenous in cells; host or cells: SWEIG (EBV-transformed homozygous B cell line)

[7] = target: T6, DRB1*1201 (DR5w12) (Homo sapiens, UniProt P01903+P01911, A100R/A169T/D57E/D86V/F55L/H45Y/K41T/L162R/M171V/P40S/Q125H/Q178H/Q39Y/Q99D/R42G/S66L/T262R/V114A/V67L/W38E/Y59H/Y61H/Y89S); experiment: Class II peptide-binding assay, DR5w12
T6 construct: used as sources of human HLA class II molecules; endogenous in cells; host or cells: Herluf (EBV-transformed homozygous B cell line)
Method: as §1, §2, §3

[8] = target: T7, DRB1*0802 (DR8w2) (Homo sapiens, UniProt P01903+P01911, A100R/A103L/A169T/F76Y/H45Y/I96F/K41T/L162R/M171V/P40S/Q125H/Q178H/Q39Y/Q99D/R218S/R42G/S66Y/V115G/W38E); experiment: Class II peptide-binding assay, DR8w2
T7 construct: used as sources of human HLA class II molecules; endogenous in cells; host or cells: OLL (EBV-transformed homozygous B cell line)
Method: as §1, §4, §3
DR8w2 and DR8w3. The β1 specificity of the DR8w2 and DR8w3 assays is obvious in that no β3 (and/or B4 and β5) molecule is expressed.

[9] = target: T8, DRB1*0901 (DR9) (Homo sapiens, UniProt P01903+P01911, A100R/A103E/D57H/D86V/F55Y/F60I/F76Y/I96F/K127E/L162R/M171V/P40D/Q125H/Q99R/R33Q/R42F/S133A/S66N/T210M/V115G/W38K/Y107V/Y59G/Y89S); experiment: Class II peptide-binding assay, DR9; settings: Table V A) Non Predictions; read-out: Binding Capacity DR9
T8 construct: used as sources of human HLA class II molecules; endogenous in cells; host or cells: HTC9074 (EBV-transformed homozygous B cell line); gift of Dr. Paul Harris
Method: as §1, §2, §3

[10] = system: panel of purified HLA DR molecules; format: binding, human;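 note: competitive inhibition of radiolabeled probe peptide binding to purified HLA DR molecules, with inhibitory potency of unlabeled peptides taken as an approximation of affinity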
Method: as §1, §4, §3

[11] = target: DRB1*1302 (DR6w19) (Homo sapiens, UniProt P01903+P01911, A100E/A169T/K41T/L162R/M171V/P40S/Q125H/Q178H/Q39Y/Q99D/R42S/S66N/T262R/V115G/W38E/Y61H); format: binding; settings: Table V B) Correct Predictions; read-out: Binding Capacity (IC50% nM) DR6w19
Method: The lysates were cleared of debris and nuclei by centrifugation at 10,000 x g for 20 min.
Affinity purification of HLA-DR molecules.
as §1, §4, §3
DR6w19. The DR6w19 assay utilizes as the source of class II molecules the EBV transformed homozygous cell line H0301, which co-expresses DRB30301 (DR52a). While the radiolabeled ligand used in the DR6w19 assay is different than that used for the DR52a assay, the ligand is related (i.e., is a single substitution analog) to a high affinity DR52a binder. As was done in the case of DR4w15, the specificity of the assay was investigated by analyzing the binding capacity of a panel of naturally occurring peptides for DR6w19 and DR52a.

[12] = target: DRB1*0701 (DR7) (Homo sapiens, UniProt P01903+P01911, A100R/A102G/A103Q/D57E/D86V/E43K/F76Y/K127E/L162R/M171V/P40G/Q125H/Q99D/R33Q/R42Y/R54Q/S133A/S66F/T210M/V115G/Y107V/Y59L/Y89S); experiment: Class II peptide-binding assay, DR7;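 note: unlabeled peptides compete with an iodinated probe peptide for binding to affinity-purified HLA-DR at neutral pH, DR amount titered to bind a small tracer fraction, IC50 approximating Kd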
Method: as §1, §4, §3

[13] = target: T9, DRB10404 (DR4w14) (Homo sapiens, UniProt P01903+P01911, A100R/A169T/F76Y/I96L/K127E/L162R/M171V/N62H/P40V/Q125Y/R42H/S133A/S149N/S66Y/V209L/W38E); experiment: Class II peptide-binding assay, DR4w14; settings: read-out: DR4w14 nM (In IC50 Format); purified HLA DR4w14;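 note: unlabeled peptides compete with a radiolabeled probe for binding to affinity-purified HLA-DR, neutral pH, class II amount titrated to bind a small fraction of label, IC50 approximates Kd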
T9 construct: used as sources of human HLA class II molecules; endogenous in cells; host or cells: BIN40 (EBV-transformed homozygous B cell line)
Method: as §1, §2, §3

[14] = target: T10, DRB4*0101 (DRw53) (Homo sapiens, UniProt P01903+P13762, G164S); format: binding; settings: read-out: DRw53 nM (In IC50 Format)
T10 construct: expressed in transfected cells; host or cells: L257.6 transfected fibroblasts
Method: as §1, §4, §3

[15] = Table V A) Non Predictions, read-out: Binding Capacity DR1
[16] = Table V A) Non Predictions, read-out: Binding Capacity DR4w4
[17] = Table V A) Non Predictions, read-out: Binding Capacity DR4w15
[18] = Table V A) Non Predictions, read-out: Binding Capacity DR5w11
[19] = Table V A) Non Predictions, read-out: Binding Capacity DR8w2
[20] = Table V A) Non Predictions, 12 DR molecules listed
[21] = Table V B) Correct Predictions, read-out: Binding Capacity (IC50% nM) DR1
[22] = Table V B) Correct Predictions, read-out: Binding Capacity (IC50% nM) DR4w15
[23] = Table V B) Correct Predictions, read-out: Binding Capacity (IC50% nM) DR7

T5 sequence (P01903 26-254, other chains not shown): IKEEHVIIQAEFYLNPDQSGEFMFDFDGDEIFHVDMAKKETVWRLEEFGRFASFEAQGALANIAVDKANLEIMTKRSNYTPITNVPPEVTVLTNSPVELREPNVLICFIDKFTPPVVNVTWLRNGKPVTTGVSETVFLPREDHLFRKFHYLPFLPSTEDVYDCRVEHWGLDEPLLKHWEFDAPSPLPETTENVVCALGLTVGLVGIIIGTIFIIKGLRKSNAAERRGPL
Sequence of DRB1*1302 (DR6w19) (P01903 26-254, other chains not shown): as above

GPPTALRSFGFAFGYM [Peptide 1136.29] gave an IC50 [1, 15] of 32 nM, an IC50 [2] of 1.1 nM and an IC50 ([3]; Table V A) Non Predictions, read-out: Binding Capacity DR2w2a) of 468 nM. The IC50 [4, 16] was 4330 nM, the IC50 [5, 17] was 745 nM and the IC50 [6, 18] was 6250 nM. The IC50 ([7]; Table V A) Non Predictions, read-out: Binding Capacity DR5w12) was 1000 nM, the IC50 [8, 19] was 2970 nM and the IC50 [9] was 183 nM. For the same substance, the “Total Alleles Bound” value [10, 20] was 7.
LAAIIFLFGPPTALRS [Peptide 1136.28] gave an IC50 [1, 21] of 0.23 nM, an IC50 ([3]; Table V B) Correct Predictions, read-out: Binding Capacity (IC50% nM) DR2w2a) of 1480 nM and an IC50 ([4]; Table V B) Correct Predictions, read-out: Binding Capacity (IC50% nM) DR4w4) of 849 nM. The IC50 [5, 22] was 6670 nM, the IC50 ([7]; Table V B) Correct Predictions, read-out: Binding Capacity (IC50% nM) DR5w12) was 4480 nM and the IC50 [11] was 3180 nM. For the same substance, the IC50 [12, 23] was 3620 nM, the IC50 ([8]; Table V B) Correct Predictions, read-out: Binding Capacity (IC50% nM) DR8w2) was 7540 nM and the “Total Alleles Bound” value [10] was 3.
LFHYYFLSEKAPGSTV [Peptide 1136.04] showed an IC50 [1, 15] of 24 nM, an IC50 [2] of 1260 nM and an IC50 [4, 16] of 20 nM. It also gave an IC50 [5, 17] of 563 nM, an IC50 [6, 18] of 69 nM and an IC50 ([12]; Table V A) Non Predictions, read-out: Binding Capacity DR7) of 3330 nM. The IC50 [8, 19] was 55 nM, the IC50 [9] was 2880 nM and the “additional DR types bound” value ([10]; "non-predictions" peptides, beyond DR1, 4w4 or 7) was “DR2w2 β2, DR4w15, 5w11 and 8w2”. The “Total Alleles Bound” value [10, 20] was 6.
QEIDPLSYNYIPVNSN [Peptide 1136.55] showed an IC50 [5, 22] of 271 nM, an IC50 ([6]; Table V B) Correct Predictions, read-out: Binding Capacity (IC50% nM) DR5w11) of 4540 nM and an IC50 [11] of 5000 nM. For the same substance, the IC50 [12, 23] was 2450 nM and the “Total Alleles Bound” value [10] was 3.
In the case of RVYQEPQVSPPQRAET [Peptide 1136.59.01a], the IC50 [1, 21] is reported as 130 nM, the IC50 [5, 22] is reported as 3140 nM and the “Total Alleles Bound” value [10] is reported as 3.
WLFPRFKFVWVTYASW [Peptide 1136.44.01] showed an IC50 [1, 15] of 526 nM, an IC50 [4, 16] of 780 nM and an IC50 [5, 17] of 6550 nM. The IC50 [6, 18] was 4000 nM, the IC50 [8, 19] was 6360 nM and the “Total Alleles Bound” value [10, 20] was 2.
For YARFQRQTTLKAAA-NH2 [Peptide 717.10], the IC50 ([1]; read-out: DR1 nM (In IC50 Format), purified HLA DR1) was 2.9 nM, the IC50 ([3]; read-out: DR2w2B2 nM (In IC50 Format), purified HLA DR2w2β2) was 55.6 nM and the IC50 ([4]; read-out: DR4w4 nM (In IC50 Format), purified HLA DR4w4) was 5.6 nM. The IC50 [13] was 12.8 nM, the IC50 ([6]; read-out: DR5w11 nM (In IC50 Format), purified HLA DR5w11) was 8.7 nM and the IC50 ([12]; read-out: DR7 nM (In IC50 Format), purified HLA DR7) was 3570 nM. For the same substance, the IC50 [14] was 6.5 nM.
